Experimental data reported in ChEMBL document CHEMBL3045199, “Synthesis of some (E)-6-[2-(furan-2-yl)ethenyl]-1,2,4-triazin-5-ones and their biological evaluation as antitumor agents” (2013).

What was measured:
Format in all cases: functional
[1] = system: T47D; assay: Cytotoxicity against Homo sapiens (human) T47D cells after 48 hr by SRB assay; conditions: read-out: pGI50 (converted)
[2] = system: MDA-MB-231; assay: Cytotoxicity against Homo sapiens (human) MDA-MB-231 cells after 48 hr by SRB assay; conditions: MDA-MB-231, 48 h, read-out: pGI50 (converted)
[3] = system: MCF7; assay: Cytotoxicity against Homo sapiens (human) MCF7 cells after 48 hr by SRB assay; conditions: MCF7, 48 h, read-out: pGI50 (converted)
[4] = system: DU-145; assay: Cytotoxicity against Homo sapiens (human) DU145 cells after 48 hr by SRB assay; conditions: DU-145, 48 h, read-out: pGI50 (converted)
[5] = system: PC-3; assay: Cytotoxicity against Homo sapiens (human) PC3 cells after 48 hr by SRB assay; conditions: PC-3, 48 h, read-out: pGI50 (converted)
[6] = system: UO-31; assay: Cytotoxicity against Homo sapiens (human) UO31 cells after 48 hr by SRB assay; conditions: UO-31, 48 h, read-out: pGI50 (converted)
[7] = system: TK-10; assay: Cytotoxicity against Homo sapiens (human) TK10 cells after 48 hr by SRB assay; conditions: TK-10, 48 h, read-out: pGI50 (converted)
[8] = system: SN12C; assay: Cytotoxicity against Homo sapiens (human) SN12C cells after 48 hr by SRB assay; conditions: read-out: pGI50 (converted)
[9] = system: RXF 393; assay: Cytotoxicity against Homo sapiens (human) RXF393 cells after 48 hr by SRB assay; conditions: RXF 393, 48 h, read-out: pGI50 (converted)
[10] = system: ACHN; assay: Cytotoxicity against Homo sapiens (human) ACHN cells after 48 hr by SRB assay; conditions: read-out: pGI50 (converted)
[11] = system: NCI-H226; assay: Cytotoxicity against Homo sapiens (human) NCI-H226 cells after 48 hr by SRB assay; conditions: NCI-H226, 48 h, read-out: pGI50 (converted)
[12] = system: HOP-62; assay: Cytotoxicity against Homo sapiens (human) HOP62 cells after 48 hr by SRB assay; conditions: HOP-62, 48 h, read-out: pGI50 (converted)
[13] = system: HOP-92; assay: Cytotoxicity against Homo sapiens (human) HOP92 cells after 48 hr by SRB assay; conditions: HOP-92, 48 h, read-out: pGI50 (converted)
[14] = system: RPMI-8226; assay: Cytotoxicity against Homo sapiens (human) RPMI8226 cells after 48 hr by SRB assay; conditions: RPMI-8226, 48 h, read-out: pGI50 (converted)
[15] = system: K562; assay: Cytotoxicity against Homo sapiens (human) K562 cells after 48 hr by SRB assay; conditions: K562, 48 h, read-out: pGI50 (converted)
[16] = system: HL-60(TB); assay: Cytotoxicity against Homo sapiens (human) HL-60(TB) cells after 48 hr by SRB assay; conditions: HL-60, 48 h, read-out: pGI50 (converted)
[17] = system: OVCAR-8; assay: Cytotoxicity against Homo sapiens (human) OVCAR8 cells after 48 hr by SRB assay; conditions: OVCAR-8, 48 h, read-out: pGI50 (converted)
[18] = system: OVCAR-4; assay: Cytotoxicity against Homo sapiens (human) OVCAR4 cells after 48 hr by SRB assay; conditions: OVCAR-4, 48 h, read-out: pGI50 (converted)
[19] = system: OVCAR-5; assay: Cytotoxicity against Homo sapiens (human) OVCAR5 cells after 48 hr by SRB assay; conditions: OVCAR-5, 48 h, read-out: pGI50 (converted)
[20] = system: OVCAR-3; assay: Cytotoxicity against Homo sapiens (human) OVCAR3 cells after 48 hr by SRB assay; conditions: OVCAR-3, 48 h, read-out: pGI50 (converted)
[21] = system: SK-MEL-5; assay: Cytotoxicity against Homo sapiens (human) SK-MEL-5 cells after 48 hr by SRB assay; conditions: SK-MEL-5, 48 h, read-out: pGI50 (converted)
[22] = system: SK-MEL-28; assay: Cytotoxicity against Homo sapiens (human) SK-MEL-28 cells after 48 hr by SRB assay; conditions: SK-MEL-28, 48 h, read-out: pGI50 (converted)
[23] = system: SK-MEL-2; assay: Cytotoxicity against Homo sapiens (human) SK-MEL-2 cells after 48 hr by SRB assay; conditions: SK-MEL-2, 48 h, read-out: pGI50 (converted)
[24] = system: M14; assay: Cytotoxicity against Homo sapiens (human) M14 cells after 48 hr by SRB assay; conditions: M14, 48 h, read-out: pGI50 (converted)
[25] = system: U-251; assay: Cytotoxicity against Homo sapiens (human) U251 cells after 48 hr by SRB assay; conditions: U-251, 48 h, read-out: pGI50 (converted)
[26] = system: SNB-19; assay: Cytotoxicity against Homo sapiens (human) SNB19 cells after 48 hr by SRB assay; conditions: SNB-19, 48 h, read-out: pGI50 (converted)
[27] = system: SF-539; assay: Cytotoxicity against Homo sapiens (human) SF539 cells after 48 hr by SRB assay; conditions: SF-539, 48 h, read-out: pGI50 (converted)
[28] = system: SF-268; assay: Cytotoxicity against Homo sapiens (human) SF268 cells after 48 hr by SRB assay; conditions: SF-268, 48 h, read-out: pGI50 (converted)
[29] = system: HT-29; assay: Cytotoxicity against Homo sapiens (human) HT-29 cells after 48 hr by SRB assay; conditions: HT-29, 48 h, read-out: pGI50 (converted)
[30] = system: KM12; assay: Cytotoxicity against Homo sapiens (human) KM12 cells after 48 hr by SRB assay; conditions: KM12, 48 h, read-out: pGI50 (converted)
[31] = system: HCT-15; assay: Cytotoxicity against Homo sapiens (human) HCT15 cells after 48 hr by SRB assay; conditions: HCT-15, 48 h, read-out: pGI50 (converted)
[32] = system: COLO 205; assay: Cytotoxicity against Homo sapiens (human) COLO205 cells after 48 hr by SRB assay; conditions: COLO 205, 48 h, read-out: pGI50 (converted)
[33] = system: NCI-H522; assay: Cytotoxicity against Homo sapiens (human) NCI-H522 cells after 48 hr by SRB assay; conditions: NCI-H522, 48 h, read-out: pGI50 (converted)
[34] = system: NCI-H322M; assay: Cytotoxicity against Homo sapiens (human) NCI-H322M cells after 48 hr by SRB assay; conditions: read-out: pGI50 (converted)

Compound `O=c1[nH]cc(F)c(=O)[nH]1` [FLUOROURACIL] has a GI50 [1] of 79.4 µM, a GI50 [2] of 501 µM and a GI50 [3] of 1580 nM. For the same compound, the GI50 [4] was 10 µM, the GI50 [5] was 50.1 µM and the GI50 [6] was 5.01 µM. For the same compound, the GI50 [7] was 126 µM, the GI50 [8] was 25.1 µM and the GI50 [9] was 50.1 µM. The GI50 [10] was 10 µM, the GI50 [11] was 251 µM and the GI50 [12] was 20 µM. For the same compound, the GI50 [13] was 158 µM, the GI50 [14] was 5.01 µM and the GI50 [15] was 20 µM. For the same compound, the GI50 [16] was 20 µM, the GI50 [17] was 20 µM and the GI50 [18] was 63.1 µM. It also gave a GI50 [19] of 158 µM, a GI50 [20] of 25.1 µM and a GI50 [21] of 12.6 µM. The GI50 [22] was 50.1 µM, the GI50 [23] was 398 µM and the GI50 [24] was 50.1 µM. It also gave a GI50 [25] of 39.8 µM, a GI50 [26] of 126 µM and a GI50 [27] of 1260 nM. It also gave a GI50 [28] of 50.1 µM, a GI50 [29] of 6.31 µM and a GI50 [30] of 10 µM. The GI50 [31] was 6.31 µM, the GI50 [32] was 6.31 µM and the GI50 [33] was 39.8 µM. For the same compound, the GI50 [34] was 20 µM.
